# Reference: BindingDB's records for doi:10.3109/14756360903468171 (2010)
# Molecular target: T1, Peroxisome proliferator-activated receptor gamma (Homo sapiens, UniProt P37231)
# T1 sequence (P37231 whole entry): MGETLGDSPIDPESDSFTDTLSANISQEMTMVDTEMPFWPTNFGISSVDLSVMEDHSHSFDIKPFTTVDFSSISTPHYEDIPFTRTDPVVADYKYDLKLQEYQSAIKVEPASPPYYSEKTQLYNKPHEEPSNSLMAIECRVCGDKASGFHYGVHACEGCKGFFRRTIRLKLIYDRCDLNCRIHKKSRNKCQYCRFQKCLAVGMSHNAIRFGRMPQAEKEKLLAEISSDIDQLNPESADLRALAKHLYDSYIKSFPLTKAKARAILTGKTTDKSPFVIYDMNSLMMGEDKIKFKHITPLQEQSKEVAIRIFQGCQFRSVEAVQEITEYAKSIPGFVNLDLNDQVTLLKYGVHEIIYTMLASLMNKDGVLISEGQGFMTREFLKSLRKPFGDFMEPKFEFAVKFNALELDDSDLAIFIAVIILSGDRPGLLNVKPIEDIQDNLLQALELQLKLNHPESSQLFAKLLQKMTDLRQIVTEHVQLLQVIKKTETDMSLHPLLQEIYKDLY
# Assay: Pharmacological In Vitro Assay
# Details: pH 8.2; 4 °C
# Procedure: Binding assays were performed in 96-well plate format, using a classical filtration assay with a human full length PPARγ construct (GST-PPAR LBD (25 μg/mL)) expressed in bacteria with some modifications regarding the conditionsof the experiments. The membrane-associated PPARγ was used as the biological source as previously described. Binding buffer consisted of 10 mM Tris/HCl, pH 8.2, containing 50 mM KCl and 1 mM dithiothreitol. Membrane preparations (5 μg/mL) were incubated for 180 min at 4°C in the presence of [3H]rosiglitazone (BRL49653, Amersham) (4 nM) and the tested compounds. Nonspecific binding was defined using an excess of unlabeled rosiglitazone (10 μM). Incubation was terminated by the addition of ice-cold 50 mM Tris/HCl buffer pH 7.4, followed by rapid filtrationunder reduced pressure through Whatman GF/C filter plates presoaked with ice-cold buffer, followed by three successive washes with the same buffer. Radioactivity was measured in a TopCount apparatus (Packard).
row,Structure (SMILES),Ki [µM]
1,CCCCCCCCOc1nc2ccccc2cc1C(O)CC#CCCCC(=O)OC (centres undefined) [8-Hydroxy-8-(2-octyloxy-quinolin-3-yl)-oct-5-ynoic acid methyl ester (8c)],> 10
2,COCCCOc1nc2ccccc2cc1C(O)CC#CCCCC(=O)OC (centres undefined) [8-Hydroxy-8-[2-(3-methoxy-propoxy)-quinolin-3-yl]-oct-5-ynoic acid methyl ester (8d)],> 10
3,"COC(=O)CCCC#CCC(O)c1cc2ccccc2nc1OCCCC(F)(F)F (centres undefined) [8-Hydroxy-8-[2-(4,4,4-trifluoro-butoxy)-quinolin-3-yl]-oct-5-ynoic acid methyl ester (8e)]",> 10
4,CCCCCOc1nc2c(ccc3ccccc32)cc1C(O)CC#CCCCC(=O)O (centres undefined) [Sodium 8-hydroxy-8-(2-pentyloxy-benzo[h]quinolin-3-yl)-oct-5-ynoate (27b)],> 10
5,COCCCOc1nc2ccccc2cc1C(O)CC#CCCCC(=O)O (centres undefined) [Sodium 8-hydroxy-8-[2-(3-methoxy-propoxy)-quinolin-3-yl]-oct-5-ynoate (9d)],> 10
6,"O=C(O)CCCC#CCC(O)c1cc2ccccc2nc1OCCCC(F)(F)F (centres undefined) [Sodium 8-hydroxy-8-[2-(4,4,4-trifluoro-butoxy)-quinolin-3-yl]-oct-5-ynoate (9e)]",> 10

# Next, values leading:
row,Ki [µM],Structure (SMILES)
1,> 10,CCCCCOc1nc2c(ccc3ccccc32)cc1C(O)CC#CCCCC(=O)OC (centres undefined) [8-Hydroxy-8-(2-pentyloxy-benzo[h]quinolin-3-yl)-oct-5-ynoic acid methyl ester (26b)]
2,> 10,CCCCCOc1nc2ccccc2cc1C(O)CC#CCCCC(=O)NCCO (centres undefined) [8-Hydroxy-8-(2-pentyloxy-quinolin-3-yl)-oct-5-ynoic acid (2-hydroxy-ethyl)-amide (14a)]
3,> 10,CCCCCOc1nc2ccccc2cc1C(O)CC#CCCCC(=O)OC (centres undefined) [8-Hydroxy-8-(2-pentyloxy-quinolin-3-yl)-oct-5-ynoic acid methyl ester]
4,> 10,COc1nc2ccccc2cc1C(O)CC#CCCCC(=O)O (centres undefined) [Sodium 8-hydroxy-8-(2-methoxy-quinolin-3-yl)-oct-5-ynoate (9b)]
5,0.378,CCCCCCCCOc1nc2ccccc2cc1C(O)CC#CCCCC(=O)O (centres undefined) [Sodium 8-hydroxy-8-(2-octyloxy-quinolin-3-yl)-oct-5-ynoate (9c)]
6,0.583,CCCCCOc1nc2ccc(OC)cc2cc1C(O)CC#CCCCC(=O)O (centres undefined) [Sodium 8-hydroxy-8-(6-methoxy-2-pentyloxy-quinolin-3-yl)-oct-5-ynoate (27a)]
7,3.81,COc1nc2ccccc2cc1C(O)CC#CCOCC(=O)O (centres undefined) [Sodium [5-hydroxy-5-(2-methoxy-quinolin-3-yl)-pent-2-ynyloxy]-acetate (18b)]
8,1.93,CCCCCOc1nc2ccccc2cc1C(O)CC#CCOCC(=O)O (centres undefined) [Sodium [5-hydroxy-5-(2-pentyloxy-quinolin-3-yl)-pent-2-ynyloxy]-acetate (18a)]
